# ChEMBL document CHEMBL1146295, “An efficient synthesis of quinoxaline derivatives from 4-chloro-4-deoxy-alpha-D-galactose and their cytotoxic activities” (Bioorg Med Chem Lett, 2007)
# Experiment: Cytotoxicity against human Ec9706 cells after 48 hrs by MTT assay
# Format: functional, cell-based
# Details: EC9706, 48 h
row,Structure (SMILES),IC50
1,COC(OC)C1OC(C)(C)OC1Cc1cnc2ccc([N+](=O)[O-])cc2n1 (stereo unspecified),69.2 µg/mL
2,COC(OC)C1OC(C)(C)OC1Cc1cnc2ccc(C(=O)c3ccccc3)cc2n1 (stereo unspecified),80 µg/mL
3,COC(OC)C1OC(C)(C)OC1Cc1cnc2cc(C(=O)c3ccccc3)ccc2n1 (stereo unspecified),80 µg/mL
4,COC(OC)C1OC(C)(C)OC1Cc1cnc2cc(Cl)ccc2n1 (stereo unspecified),30.5 µg/mL
5,COC(OC)C1OC(C)(C)OC1Cc1cnc2ccc(Cl)cc2n1 (stereo unspecified),30.5 µg/mL
6,COC(OC)C1OC(C)(C)OC1Cc1cnc2ccccc2n1 (stereo unspecified),> 100 µg/mL
